Experimental data taken from patent publication US7335688B2, “Bicyclic cannabinoid agonists for the cannabinoid receptor” (University of Connecticut, priority 1999, dated 2008).

Target: T1, CB2 receptor (Mus musculus, UniProt P47936)
T1 construct: membranes were prepared from frozen mouse spleen; from tissue; host or cells: mouse spleen membranes
Test: CB2 receptor binding assay ([3H] CP-55,940 displacement, mouse spleen membranes)
Settings: CB2 (mouse spleen) versus CB1 (rat forebrain membranes) binding affinity
Protocol: As used herein, “binding affinity” (Ki) is represented by the IC50 value which is the concentration of an analog required to occupy the 50% of the total number (Bmax) of the receptors. The lower the IC50 value the higher the binding affinity. […] The AM1703 material was tested for CB2 receptor binding affinity and for CB1 receptor affinity (to determine selectivity for the CB2 receptor).
Membranes, previously frozen at −80° C., were thawed on ice. To the stirred suspension was added three volumes of TME (25 mM Tris-HCI buffer, 5 mM MgCl2 and 1 mM EDTA) at a pH 7.4. The suspension was incubated at 4° C. for 30 min. At the end of the incubation, the membranes were pelleted and washed three times with TME.
The treated membranes were subsequently used in the binding assay described below. Approximately 30 μg of membranes were incubated in silanized 96-well microtiter plate with TME containing 0.1% essentially fatty acid-free bovine serum albumin (BSA), 0.8 nM [^3H] […] Radioactivity was detected using MicroScint 20 scintillation cocktail added directly to the dried filterplates, and the filterplates were counted using a Packard Instruments Top-Count. Nonspecific binding was assessed using 100 nM CP-55,940. […] CP-55,940, determined using buffer and 100 nM CP-55,940. The normalized data was analyzed using a 4-parameter nonlinear logistic equation to yield IC50 values. […]

T1 sequence (P47936 whole entry): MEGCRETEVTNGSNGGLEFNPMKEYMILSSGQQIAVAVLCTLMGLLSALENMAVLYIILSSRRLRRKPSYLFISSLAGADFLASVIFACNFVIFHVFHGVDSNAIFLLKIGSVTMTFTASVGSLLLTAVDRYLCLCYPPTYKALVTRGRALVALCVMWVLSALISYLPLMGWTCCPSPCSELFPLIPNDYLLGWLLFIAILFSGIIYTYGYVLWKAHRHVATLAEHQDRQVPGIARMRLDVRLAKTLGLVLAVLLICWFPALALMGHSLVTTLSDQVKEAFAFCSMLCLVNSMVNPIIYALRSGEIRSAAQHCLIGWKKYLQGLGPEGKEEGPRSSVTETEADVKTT

## C#CCCCCC(C)(C)c1cc(O)c([C@@H]2CC(=O)[C@@H]3C[C@H]2C3(C)C)c(O)c1 [AM1703]
  CB2 selectivity over CB1: ~500 fold
